Experimental findings from patent US20220251109A1, “OXAAZAQUINAZOLINE-7(8H)-KETONE COMPOUND, PREPARATION METHOD THEREFOR AND PHARMACEUTICAL APPLICATION THEREOF” (GENFLEET THERAPEUTICS (SHANGHAI) INC., priority 2019, published 2022) are described below.

Format in all cases: cell-based, human
In assay [1] the test system is A549 cells (Kras G12S mutation). The assay can be described thus: Cell proliferation inhibition experiment, 3D model, CellTiter-Glo (A549). The note with it: A549, 3D sphere plate, 5 days, 2% FBS. How it is done:
(§1) NCI-H358 was a human non-small cell lung cancer cell line with Kras G12C mutation, cultured in 10% FBS RPMI-1640 medium; A549 was a human lung adenocarcinoma cell line with Kras G12S mutation, cultured in 10% FBS F-12K medium. The cells in the logarithmic growth phase was taken, digested with trypsin EDTA, collected and counted, and H358 was adjusted to 1.8E4 cells/ml using 2% FBS RPMI-1640 medium, and A549 was adjusted to 8.9E3 cells/ml using 2% FBS F-12K medium; 800 (45 μl) H358 or 400 (45 μl) A549 cells were seeded in a 384-well sphere plate respectively, cultured overnight to establish a 3D cell model. DMSO was used to prepare 1000× compound 3.16-fold gradient concentration stock solution, and 2% FBS medium was used to dilute 100-fold to 10× compound stock solution. On the second day after cell seeding, 5 μl 10× compound stock solution was added to each cell culture well, the final concentration was 1×, and DMSO content was 0.1%. DMSO was used as the experimental control (control) and 2% FBS medium as the blank control (blank). After the compound and cells were added and cultured for 5 days, 25 μl CellTiter-Glo working solution was added to each well, mixed at 400 rpm and incubated for 30 minutes. After 30 minutes at room temperature, 40 μl of the mixture was transferred to a 384-well plate with a non-transparent white bottom, the luminescence chemiluminescence value was read, and the cells proliferation inhibition rate IR (%)=(RLU control-RLU compound)/(RLU control-RLU blank)×100% was calculated, Prism 6 four-parameter method was used to fit the compound's gradient dilution concentration and the corresponding cell proliferation inhibition rate, and the IC50 value was calculate.
On the technique in general: ATP-based viability assays read luminescence as a measure of living cells.

For assay [2], the system named is MIA PaCa-2 cells (Kras G12C mutation). The assay can be described thus: Cell proliferation inhibition experiment, 3D model, CellTiter-Glo (MIA PaCa-2). The note with it: MIA PaCa-2, 3D sphere plate, 5 days, read-out: MIA-PaCa2 IC50. As for the experimental part:
MIA PaCa2 was a human pancreatic cancer cell line with Kras G12C mutation, cultured in 10% FBS+2.5% Horse serum DMEM medium; A549 was a human lung adenocarcinoma cell line with Kras G12S mutation, cultured in 10% FBS F-12K medium. The cells in the logarithmic growth phase were taken, digested with enzyme EDTA, collected, counted and 200 MIA PaCa-2 or 400 A549 cells were seeded in a 384-well sphere plate respectively, cultured overnight to establish a 3D cell model. DMSO was used to prepare 1000× compound 3.16-fold gradient concentration stock solution, and medium was used to dilute 100-fold to 10× compound stock solution. On the second day after cell seeding, 10× compound stock solution was added to each cell culture well, the final concentration was 1×, and DMSO content was 0.1%. DMSO was used as an experimental control (control), medium as the blank control (blank). After the compound and cells were added and cultured for 5 days, 30 μl CellTiter-Glo working solution was added to each well, mixed and incubated for 30 minutes. After 30 minutes at room temperature, 40 μl of the mixture was transferred to a 384-well plate with a non-transparent white bottom, the luminescence chemiluminescence value was read, and the cells proliferation inhibition rate IR (%)=(RLU control-RLU compound)/(RLU control-RLU blank)×100% was calculated, XLFit four-parameter method was used to fit the compound's gradient dilution concentration and the corresponding cell proliferation inhibition rate, and the IC50 value was calculate.

Assay [3] has as its system NCI-H358 cells (Kras G12C mutation). The assay is described as follows: Cell proliferation inhibition experiment, 3D model, CellTiter-Glo (NCI-H358). To be noted: NCI-H358, 3D sphere plate, 5 days, 2% FBS. How it is done:
as §1

Setting [4] is: Homo sapiens, MIA PaCa-2, 120 h.

Where two headings read alike, the source gives them in different places.

Turning to `C=CC(=O)N1CCN2c3nc(=O)n(-c4c(C)ccnc4C(C)C)c4cc(-c5c(C)ccc6[nH]ncc56)c(Cl)c(c34)OC[C@@H]2C1` (single isomer, unassigned) [Compound Z26-1], the IC50 (commonly the concentration needed to halve the response being measured) in assay [1] (Homo sapiens, A549, 120 h) came out at 13800 nM; in assay [2], 74 nM; in assay [3] it was 31 nM.
For `C=CC(=O)N1CCN2c3nc(=O)n(-c4c(C)ccnc4C(C)C)c4cc(-c5c(C)ccc6[nH]ncc56)c(Cl)c(c34)OC[C@@H]2C1` (single isomer, unassigned) [Compound Z26-2], the IC50 in assay [1] was more than 10000 nM; in assay [2], 4 nM; in assay [3], 1 nM.
The like results for `C=CC(=O)N1CCN2c3nc(=O)n(-c4c(C)ccnc4C(C)C)c4cc(-c5c(O)cccc5F)c(Cl)c(c34)OC[C@H]2C1` (single isomer, unassigned) [Compound Z29-1] were, in that order, more than 10000 nM, 8 nM and 3 nM.
For `C=CC(=O)N1CCN2c3nc(=O)n(-c4c(C)ccnc4C(C)C)c4cc(-c5c(O)cccc5F)c(Cl)c(c34)OC[C@H]2C1` (single isomer, unassigned) [Compound Z29-2] the same measures were more than 10000 nM, 6 nM and 5 nM.
Regarding `C=CC(=O)N1CCN2c3nc(=O)n(-c4c(C)ccnc4C(C)C)c4cc(-c5c(O)cccc5F)c(Cl)c(c34)OC[C@H]2C1` (single isomer, unassigned) [Compound Z29-4], the values for the IC50 in assay [1], in assay [2] and in assay [3] were more than 10000 nM, 358 nM and 44 nM, respectively.
Take `C=CC(=O)N1CCN2c3nc(=O)n(-c4c(C)ccnc4C(C)C)c4cc(-c5c(C)ccc6[nH]ncc56)c(Cl)c(c34)OC[C@H]2C1` (single isomer, unassigned) [Compound Z30-1]: the results for the IC50 in assay [1], in assay [2] and in assay [3] were 25000 nM, 78 nM and 65 nM, respectively.
For `C=CC(=O)N1CCN2c3nc(=O)n(-c4c(C)ccnc4C(C)C)c4cc(-c5c(C)ccc6[nH]ncc56)c(Cl)c(c34)OC[C@H]2C1` (single isomer, unassigned) [Compound Z30-2] the same measures were 20700 nM, 5 nM and 2 nM.
With `C=CC(=O)N1CCN2c3nc(=O)n(-c4c(C)ccnc4C(C)C)c4nc(-c5c(O)cccc5F)cc(c34)OC[C@@H]2C1` (single isomer, unassigned) [Compound Z36-2], the IC50 in assay [1] (Homo sapiens, A549, 120 h) is 14400 nM; in assay [2] (setting [4]) it was 121 nM; in assay [3] (Homo sapiens, NCI-H358, 120 h) it was 68 nM.
In the case of `[2H]C([2H])([2H])Oc1cccc(F)c1-c1nc2c3c(nc(=O)n2-c2c(C)ccnc2C(C)C)N2CCN(C(=O)C=C)C[C@@H]2COc3c1F` (single isomer, unassigned) [Compound Z100-1], the IC50 in assay [1] (Homo sapiens, A549, 120 h) is 19700 nM; in assay [2] (setting [4]), 4 nM; in assay [3], 2 nM.
Regarding `C=CC(=O)N1CCN2c3nc(=O)n(-c4c(C)ncnc4C(C)C)c4nc(-c5c(O)cccc5F)c(F)c(c34)OC[C@H]2C1` (single isomer, unassigned) [Compound Z101-1], the IC50 in assay [1] (Homo sapiens, A549, 120 h) was more than 10000 nM; in assay [2], 56 nM; in assay [3] it was 42 nM.
`C=CC(=O)N1CCN2c3nc(=O)n(-c4c(C)ncnc4C(C)C)c4nc(-c5c(O)cccc5F)c(F)c(c34)OC[C@H]2C1` (single isomer, unassigned) [Compound Z101-2]: the IC50 in assay [1] was more than 10000 nM; in assay [2] it was 3 nM; in assay [3] it was 3 nM.
`C=CC(=O)N1CCN2c3nc(=O)n(-c4c(C)ccnc4C4CC4)c4nc(-c5ccccc5F)c(Cl)c(c34)OC[C@H]2C1` (single isomer, unassigned) [Compound Z102-1]: the IC50 came out at 13300 nM in assay [1] (Homo sapiens, A549, 120 h); 4 nM in assay [2]; 4 nM in assay [3].
As to `C=CC(=O)N1CCN2c3nc(=O)n(-c4c(C)ccnc4C4CC4)c4nc(-c5ccccc5F)c(Cl)c(c34)OC[C@H]2C1` (single isomer, unassigned) [Compound Z102-2], the IC50 in assay [1] came to 12200 nM; in assay [2], 83 nM; in assay [3], 27 nM.
On to `Cc1ccnc(C(C)C)c1-n1c(=O)nc2c3c(c(Cl)c(-c4ccccc4F)nc31)OC[C@H]1CN(C(=O)/C=C/CN(C)C)CCN21` (single isomer, unassigned) [Compound Z237-2], for which the IC50 in assay [1] (Homo sapiens, A549, 120 h) was more than 30000 nM; in assay [2] (setting [4]), 48 nM; in assay [3] (Homo sapiens, NCI-H358, 120 h), 47 nM.
For `C=CC(=O)N1CCN2c3nc(=O)n(-c4c(C)ccnc4C(C)C)c4cc(-c5c(O)cccc5F)cc(c34)OC[C@H]2C1` [Compound Z16, (R)-2-acryloyl-10-(2-fluoro-6-hydroxyphenyl)-8-(2-isopropyl-4-methylpyridin-3-yl)-1,2,3,4,13,13a-hexahydropyrazino[2′,1′:3,4][1,4]oxazepine[5,6,7-de]quinazolin-7 (8H)-one] the same measures were more than 10000 nM, 29 nM and 41 nM.
Take `C=CC(=O)N1CCN2c3nc(=O)n(C4CC4)c4cc(-c5c(C)ccc6[nH]ncc56)c(Cl)c(c34)OC[C@@H]2C1` [Compound Z17]: the IC50 is 22900 nM in assay [1] (Homo sapiens, A549, 120 h); 55 nM in assay [2] (setting [4]); 63 nM in assay [3] (Homo sapiens, NCI-H358, 120 h).
For `C=CC(=O)N1CCN2c3nc(=O)n(-c4ccccc4C(C)C)c4cc(-c5c(C)ccc6[nH]ncc56)c(Cl)c(c34)OC[C@@H]2C1` [Compound Z20] the same measures were 3760 nM, 15 nM and 5 nM.
Regarding `C=CC(=O)N1CCN2c3nc(=O)n(-c4c(C)ccnc4C(C)C)c4nc(-c5c(O)cccc5F)c(Cl)c(c34)OC[C@@H]2C1` [Compound Z24, (5 aS)-7-acryloyl-3-chloro-2-(2-fluoro-6-hydroxyphenyl)-12-(2-isopropyl-4-methylpyridin-3-yl)-5,5a,6,7,8,9-hexahydro-4-oxo-1,7,9a,10,12-pentazabenzo[4,5] cyclohepta[1,2,3-de]naphthalen-11 (12H)-one], the IC50 was found to be 10400 nM in assay [1] (Homo sapiens, A549, 120 h); 9 nM in assay [2] (setting [4]); 8 nM in assay [3].
Regarding `C=CC(=O)N1CCN2c3nc(=O)n(-c4c(C)ccnc4C(C)C)c4cc(-c5c(O)cccc5F)c(Cl)c(c34)OC[C@H]2C1` [Compound Z29], the IC50 in assay [1] (Homo sapiens, A549, 120 h) came out at 12600 nM; in assay [2], 14 nM; in assay [3], 7 nM.
As to `C=CC(=O)N1CCN2c3nc(=O)n(-c4c(C)ccnc4C(C)C)c4cc(-c5c(O)cccc5F)c(Cl)c(c34)OC[C@@H]2C1` [Compound Z31], the IC50 came to 12300 nM in assay [1] (Homo sapiens, A549, 120 h); 25 nM in assay [2] (setting [4]); 47 nM in assay [3] (Homo sapiens, NCI-H358, 120 h).
As for `C=CC(=O)N1CCN2c3nc(=O)n(-c4c(C)ccnc4C(C)C)c4cc(-c5cccnc5N)c(Cl)c(c34)OC[C@H]2C1` [Compound Z41], the IC50 in assay [1] (Homo sapiens, A549, 120 h) was more than 10000 nM; in assay [2] (setting [4]) it was 344 nM; in assay [3] (Homo sapiens, NCI-H358, 120 h) it was 318 nM.
As to `C=CC(=O)N1CCN2c3nc(=O)n(-c4c(C)ccnc4C(C)C)c4nc(-c5ccccc5F)c(Cl)c(c34)OC[C@@H]2C1` [Compound Z46], the IC50 is more than 10000 nM in assay [1] (Homo sapiens, A549, 120 h); 20 nM in assay [2] (setting [4]); 5 nM in assay [3] (Homo sapiens, NCI-H358, 120 h).
Consider `C=CC(=O)N1CCN2c3nc(=O)n(-c4c(C)ccnc4C(C)C)c4nc(-c5cccc(F)c5F)c(Cl)c(c34)OC[C@@H]2C1` [Compound Z47], for which the IC50 is more than 10000 nM in assay [1] (Homo sapiens, A549, 120 h); 9 nM in assay [2]; 3 nM in assay [3].
